Laboratory results published in ChEMBL document CHEMBL3862033 (J Med Chem, 2016).

Experiments:
[1] = biological target: 5-hydroxytryptamine receptor 5A (Homo sapiens) (UniProt P47898); assay: Displacement of [3H]LSD from human 5-HT5A receptor expressed in Flp-In-CHO cell membranes incubated for 90 mins under dark condition by microbeta scintillation counting method relative to control; design: concentration or dose not given beside the values
Adenosine receptor A1 = biological target: T1, Adenosine receptor A1 (Homo sapiens, UniProt P30542); assay: Displacement of [3H]N6-phenylisopropyladenosine from recombinant human A1AR expressed in CHO cell membranes after 60 mins by liquid scintillation counting method
T1 sequence (P30542 whole entry): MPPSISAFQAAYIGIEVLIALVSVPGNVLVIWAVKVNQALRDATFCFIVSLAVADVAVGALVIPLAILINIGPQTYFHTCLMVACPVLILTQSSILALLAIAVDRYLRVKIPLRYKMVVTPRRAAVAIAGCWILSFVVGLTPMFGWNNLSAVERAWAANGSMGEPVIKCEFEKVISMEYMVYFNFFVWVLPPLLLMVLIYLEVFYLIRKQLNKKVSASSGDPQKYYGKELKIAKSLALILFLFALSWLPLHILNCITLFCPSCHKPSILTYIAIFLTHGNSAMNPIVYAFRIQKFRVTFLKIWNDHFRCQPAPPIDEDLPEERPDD

[2] = biological target: T2, 5-hydroxytryptamine receptor 2A (Homo sapiens, UniProt P28223); assay: Displacement of [3H]ketanserin from human 5-HT2A receptor expressed in HEK-T cell membranes incubated for 90 mins under dark condition by microbeta scintillation counting method
[3] = biological target: T3, 5-hydroxytryptamine receptor 1A (Homo sapiens) (UniProt P08908); assay: Displacement of [3H]WAY100635 from human 5-HT1AR expressed in CHO cell membranes at 10 uM incubated for 90 mins under dark condition by microbeta scintillation counting method relative to control
T3 sequence (whole entry): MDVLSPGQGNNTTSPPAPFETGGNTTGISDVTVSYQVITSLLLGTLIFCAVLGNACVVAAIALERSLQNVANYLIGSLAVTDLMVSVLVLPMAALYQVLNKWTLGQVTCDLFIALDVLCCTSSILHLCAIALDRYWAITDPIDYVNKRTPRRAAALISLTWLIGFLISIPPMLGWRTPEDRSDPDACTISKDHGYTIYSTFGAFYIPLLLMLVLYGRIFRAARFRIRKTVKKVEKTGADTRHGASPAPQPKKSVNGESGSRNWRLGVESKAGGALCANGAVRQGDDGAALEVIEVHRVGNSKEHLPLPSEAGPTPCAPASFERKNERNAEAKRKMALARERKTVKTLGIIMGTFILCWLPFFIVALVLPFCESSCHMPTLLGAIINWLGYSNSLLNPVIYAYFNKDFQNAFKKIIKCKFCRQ

[4] = biological target: T4, 5-hydroxytryptamine receptor 2C (Homo sapiens) (UniProt P28335); assay: Displacement of [3H]mesulergine from human 5-HT2CR expressed in Flp-In HEK cell membranes at 10 uM incubated for 90 mins under dark condition by microbeta scintillation counting method relative to control; details: HEK293
T4 sequence (whole entry): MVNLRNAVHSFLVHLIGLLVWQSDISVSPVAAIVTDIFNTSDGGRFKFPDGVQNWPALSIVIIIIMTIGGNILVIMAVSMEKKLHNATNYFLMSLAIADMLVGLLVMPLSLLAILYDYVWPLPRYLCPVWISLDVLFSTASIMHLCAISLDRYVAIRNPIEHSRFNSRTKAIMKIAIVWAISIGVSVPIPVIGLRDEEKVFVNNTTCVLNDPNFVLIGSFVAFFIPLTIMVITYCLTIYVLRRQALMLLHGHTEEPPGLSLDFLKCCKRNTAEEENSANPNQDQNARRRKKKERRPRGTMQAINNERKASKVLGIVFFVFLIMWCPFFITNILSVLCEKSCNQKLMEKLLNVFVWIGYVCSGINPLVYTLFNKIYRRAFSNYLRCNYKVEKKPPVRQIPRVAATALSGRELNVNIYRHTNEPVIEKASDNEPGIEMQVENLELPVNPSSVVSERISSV

[5] = biological target: T2, 5-hydroxytryptamine receptor 2A; assay: Displacement of [3H]ketanserin from human 5-HT2A receptor expressed in HEK-T cell membranes at 10 uM incubated for 90 mins under dark condition by microbeta scintillation counting method relative to control
[6] = biological target: 5-hydroxytryptamine receptor 4 (Homo sapiens) (UniProt Q13639); assay: Displacement of [3H]GR113808 from human 5-HT4 receptor at 10 uM incubated for 90 mins under dark condition by microbeta scintillation counting method relative to control
[7] = biological target: 5-hydroxytryptamine receptor 1D (Homo sapiens) (UniProt P28221); assay: Displacement of [3H]5-CT from human 5-HT1D receptor expressed in HEK-T cell membranes at 10 uM incubated for 90 mins under dark condition by microbeta scintillation counting method relative to control
Adenosine receptor A2a = Adenosine receptor A2a (Homo sapiens, UniProt P29274); assay: Displacement of [3 H]2-[p-(2-carboxyethyl)phenyl-ethylamino]-5'-N-ethylcarboxamidoadenosine from recombinant human adenosine receptor A2A expressed in HEK293 cell membranes after 60 mins by liquid scintillation counting method
[8] = biological target: 5-hydroxytryptamine receptor 1B (Homo sapiens) (UniProt P28222); assay: Displacement of [3H]5-CT from human 5-HT1BR expressed in HEK cell membranes at 10 uM incubated for 90 mins under dark condition by microbeta scintillation counting method relative to control; details: HEK293
[9] = biological target: 5-hydroxytryptamine receptor 6 (Homo sapiens) (UniProt P50406); assay: Displacement of [3H]LSD from human 5-HT6 receptor expressed in HEK cell membranes at 10 uM incubated for 90 mins under dark condition by microbeta scintillation counting method relative to control; details: HEK293
[10] = biological target: T5, 5-hydroxytryptamine receptor 2C (Homo sapiens, UniProt P28335); assay: Displacement of [3H]mesulergine from human 5-HT2CR expressed in Flp-In HEK cell membranes incubated for 90 mins under dark condition by microbeta scintillation counting method; design: species or system HEK293
T5 sequence (P28335 whole entry): T4 sequence (whole entry)

[11] = biological target: 5-hydroxytryptamine receptor 1E (Homo sapiens) (UniProt P28566); assay: Displacement of [3H]5-HT from human 5-HT1E receptor expressed in HEK cell membranes at 10 uM incubated for 90 mins under dark condition by microbeta scintillation counting method relative to control; details: HEK293
[12] = biological target: 5-hydroxytryptamine receptor 7 (Homo sapiens) (UniProt P34969); assay: Displacement of [3H]LSD from human 5-HT7A receptor expressed in HEK cell membranes at 10 uM incubated for 90 mins under dark condition by microbeta scintillation counting method relative to control; details: HEK293
[13] = biological target: T6, 5-hydroxytryptamine receptor 3A (Homo sapiens) (UniProt P46098); assay: Displacement of [3H]GR65630 from human 5-HT3 receptor expressed in HEK-T cell membranes at 10 uM incubated for 90 mins under dark condition by microbeta scintillation counting method relative to control
T6 sequence (whole entry): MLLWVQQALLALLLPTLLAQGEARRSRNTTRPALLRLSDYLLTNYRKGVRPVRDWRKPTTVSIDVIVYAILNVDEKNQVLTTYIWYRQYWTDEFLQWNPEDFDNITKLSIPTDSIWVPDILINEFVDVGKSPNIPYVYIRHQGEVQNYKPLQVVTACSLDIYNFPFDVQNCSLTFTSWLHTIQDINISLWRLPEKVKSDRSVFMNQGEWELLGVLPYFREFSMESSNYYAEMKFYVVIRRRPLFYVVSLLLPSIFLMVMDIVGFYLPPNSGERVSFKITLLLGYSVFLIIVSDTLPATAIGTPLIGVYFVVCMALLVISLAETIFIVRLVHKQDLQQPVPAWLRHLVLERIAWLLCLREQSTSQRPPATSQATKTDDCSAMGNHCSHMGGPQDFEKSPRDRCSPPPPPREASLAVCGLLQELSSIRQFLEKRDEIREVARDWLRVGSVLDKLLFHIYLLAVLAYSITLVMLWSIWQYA

[14] = Displacement of [3H]DTG from sigma2 receptor in rat PC12 cells after 90 mins by microbeta scintillation counting method; format: cell-based; details: pc-12
Adenosine receptor A3 = biological target: T7, Adenosine receptor A3 (Homo sapiens, UniProt P0DMS8); assay: Displacement of [125l]N 6-(4-amino-3-iodobenzyl)adenosine-5'-N-methyluronamide from recombinant human A3AR expressed in CHO cell membranes after 60 mins by gamma counting method
T7 sequence (P0DMS8 whole entry): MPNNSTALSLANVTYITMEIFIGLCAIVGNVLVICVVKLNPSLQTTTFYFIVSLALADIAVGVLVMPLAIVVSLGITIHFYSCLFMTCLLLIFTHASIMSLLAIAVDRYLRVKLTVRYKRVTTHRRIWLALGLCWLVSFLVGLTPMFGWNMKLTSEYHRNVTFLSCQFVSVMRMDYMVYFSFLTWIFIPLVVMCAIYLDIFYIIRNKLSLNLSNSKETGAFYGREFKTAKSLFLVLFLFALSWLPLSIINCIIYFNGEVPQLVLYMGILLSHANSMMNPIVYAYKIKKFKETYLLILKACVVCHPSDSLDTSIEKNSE

[15] = biological target: T8, Adenosine receptor A3 (Mus musculus) (UniProt Q61618); assay: Agonist activity at recombinant mouse A3AR expressed in HEK293 cells assessed as inhibition of forskolin-stimulated cAMP accumulation at 10 uM after 15 mins relative to adenosine-5'-N-ethyluronamide; format: functional, cell-based
T8 sequence (whole entry): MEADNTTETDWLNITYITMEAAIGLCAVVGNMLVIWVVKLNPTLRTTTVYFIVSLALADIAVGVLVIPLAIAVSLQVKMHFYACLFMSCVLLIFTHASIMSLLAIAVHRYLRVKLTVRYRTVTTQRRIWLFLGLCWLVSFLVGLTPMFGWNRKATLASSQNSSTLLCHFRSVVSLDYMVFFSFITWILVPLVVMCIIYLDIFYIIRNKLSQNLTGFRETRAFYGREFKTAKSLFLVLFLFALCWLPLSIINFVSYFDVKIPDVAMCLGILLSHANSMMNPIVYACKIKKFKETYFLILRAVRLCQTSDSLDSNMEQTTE

[16] = biological target: 5-hydroxytryptamine receptor 2B (Homo sapiens, UniProt P41595); details: HEK293, at 10 µM
5-hydroxytryptamine receptor 2B, sequence (P41595 whole entry): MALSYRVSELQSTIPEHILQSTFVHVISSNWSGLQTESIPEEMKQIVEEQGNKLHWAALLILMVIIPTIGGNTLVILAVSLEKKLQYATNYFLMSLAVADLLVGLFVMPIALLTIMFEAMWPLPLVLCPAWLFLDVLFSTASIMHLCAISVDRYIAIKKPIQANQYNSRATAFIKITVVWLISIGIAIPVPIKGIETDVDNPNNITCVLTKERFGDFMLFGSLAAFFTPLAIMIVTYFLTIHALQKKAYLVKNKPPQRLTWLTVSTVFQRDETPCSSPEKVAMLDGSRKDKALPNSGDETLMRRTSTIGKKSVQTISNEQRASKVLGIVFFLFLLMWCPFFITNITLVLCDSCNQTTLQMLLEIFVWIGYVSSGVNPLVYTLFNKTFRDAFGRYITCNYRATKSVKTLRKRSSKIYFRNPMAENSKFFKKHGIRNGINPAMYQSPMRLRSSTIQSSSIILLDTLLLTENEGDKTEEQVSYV

5-hydroxytryptamine receptor 1B (Homo sapiens), sequence (P28222 whole entry): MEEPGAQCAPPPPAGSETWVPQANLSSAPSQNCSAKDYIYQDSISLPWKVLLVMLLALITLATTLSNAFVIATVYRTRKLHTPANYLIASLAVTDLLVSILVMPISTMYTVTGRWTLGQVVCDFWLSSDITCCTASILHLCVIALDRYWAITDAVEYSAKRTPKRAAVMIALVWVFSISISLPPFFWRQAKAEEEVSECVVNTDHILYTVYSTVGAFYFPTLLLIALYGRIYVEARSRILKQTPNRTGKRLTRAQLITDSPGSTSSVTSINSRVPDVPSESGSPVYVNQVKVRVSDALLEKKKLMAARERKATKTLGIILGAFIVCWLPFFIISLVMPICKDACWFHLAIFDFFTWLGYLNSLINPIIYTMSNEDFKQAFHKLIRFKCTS
5-hydroxytryptamine receptor 1E (Homo sapiens), sequence (P28566 whole entry): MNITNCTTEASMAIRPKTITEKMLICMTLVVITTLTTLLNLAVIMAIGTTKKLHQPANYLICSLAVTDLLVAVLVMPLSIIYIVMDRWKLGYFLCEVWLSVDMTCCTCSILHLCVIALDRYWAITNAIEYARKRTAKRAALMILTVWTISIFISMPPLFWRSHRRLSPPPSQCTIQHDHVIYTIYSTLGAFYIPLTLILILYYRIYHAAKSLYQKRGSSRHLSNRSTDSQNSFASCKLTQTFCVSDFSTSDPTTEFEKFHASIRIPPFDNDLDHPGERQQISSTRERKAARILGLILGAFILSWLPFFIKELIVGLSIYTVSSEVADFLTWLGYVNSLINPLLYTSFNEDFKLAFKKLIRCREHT
5-hydroxytryptamine receptor 5A (Homo sapiens), sequence (P47898 whole entry): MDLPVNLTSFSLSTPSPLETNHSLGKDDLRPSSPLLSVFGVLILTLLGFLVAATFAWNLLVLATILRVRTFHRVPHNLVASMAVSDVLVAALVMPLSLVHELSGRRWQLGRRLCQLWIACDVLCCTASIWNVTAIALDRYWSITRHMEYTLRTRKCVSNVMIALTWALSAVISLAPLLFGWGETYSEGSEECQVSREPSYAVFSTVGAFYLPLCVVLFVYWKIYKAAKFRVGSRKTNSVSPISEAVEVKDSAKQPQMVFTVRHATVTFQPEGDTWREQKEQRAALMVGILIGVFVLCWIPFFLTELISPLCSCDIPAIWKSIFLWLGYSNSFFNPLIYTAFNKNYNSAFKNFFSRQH
5-hydroxytryptamine receptor 4 (Homo sapiens), sequence (Q13639 whole entry): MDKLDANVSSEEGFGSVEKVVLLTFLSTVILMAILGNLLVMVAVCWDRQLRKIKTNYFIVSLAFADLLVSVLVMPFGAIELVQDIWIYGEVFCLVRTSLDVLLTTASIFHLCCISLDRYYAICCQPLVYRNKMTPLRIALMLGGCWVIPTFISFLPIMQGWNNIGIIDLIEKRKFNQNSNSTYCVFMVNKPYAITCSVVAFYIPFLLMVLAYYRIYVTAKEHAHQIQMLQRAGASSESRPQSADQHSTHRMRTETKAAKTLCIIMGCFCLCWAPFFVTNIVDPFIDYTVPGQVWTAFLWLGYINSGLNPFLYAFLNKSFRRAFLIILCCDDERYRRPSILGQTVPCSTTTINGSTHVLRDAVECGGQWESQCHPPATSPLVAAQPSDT
T2 sequence (P28223 whole entry): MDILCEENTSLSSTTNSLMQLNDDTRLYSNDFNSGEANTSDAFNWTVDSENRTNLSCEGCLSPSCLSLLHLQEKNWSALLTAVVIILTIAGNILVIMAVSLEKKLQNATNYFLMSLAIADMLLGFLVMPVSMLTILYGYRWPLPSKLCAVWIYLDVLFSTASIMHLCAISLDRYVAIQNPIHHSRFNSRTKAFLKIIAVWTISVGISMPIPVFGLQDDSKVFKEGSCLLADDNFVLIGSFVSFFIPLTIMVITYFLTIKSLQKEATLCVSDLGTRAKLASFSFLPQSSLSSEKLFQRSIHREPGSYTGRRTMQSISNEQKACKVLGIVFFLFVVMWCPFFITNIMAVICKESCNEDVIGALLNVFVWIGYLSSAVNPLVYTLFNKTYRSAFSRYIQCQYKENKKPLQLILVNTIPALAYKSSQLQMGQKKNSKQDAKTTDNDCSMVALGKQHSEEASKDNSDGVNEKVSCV
5-hydroxytryptamine receptor 7 (Homo sapiens), sequence (P34969 whole entry): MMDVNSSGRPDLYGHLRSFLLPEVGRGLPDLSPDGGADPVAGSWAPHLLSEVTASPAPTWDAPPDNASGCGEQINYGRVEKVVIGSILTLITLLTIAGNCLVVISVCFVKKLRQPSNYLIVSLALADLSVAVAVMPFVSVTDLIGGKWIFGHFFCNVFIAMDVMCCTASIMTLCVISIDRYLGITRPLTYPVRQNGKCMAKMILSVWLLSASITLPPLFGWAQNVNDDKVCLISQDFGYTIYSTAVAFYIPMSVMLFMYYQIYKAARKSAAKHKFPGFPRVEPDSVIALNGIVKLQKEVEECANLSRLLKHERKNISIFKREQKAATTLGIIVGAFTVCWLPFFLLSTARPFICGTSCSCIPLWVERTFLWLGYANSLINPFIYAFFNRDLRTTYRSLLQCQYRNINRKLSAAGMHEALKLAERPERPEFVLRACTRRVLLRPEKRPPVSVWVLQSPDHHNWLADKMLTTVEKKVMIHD
5-hydroxytryptamine receptor 1D (Homo sapiens), sequence (P28221 whole entry): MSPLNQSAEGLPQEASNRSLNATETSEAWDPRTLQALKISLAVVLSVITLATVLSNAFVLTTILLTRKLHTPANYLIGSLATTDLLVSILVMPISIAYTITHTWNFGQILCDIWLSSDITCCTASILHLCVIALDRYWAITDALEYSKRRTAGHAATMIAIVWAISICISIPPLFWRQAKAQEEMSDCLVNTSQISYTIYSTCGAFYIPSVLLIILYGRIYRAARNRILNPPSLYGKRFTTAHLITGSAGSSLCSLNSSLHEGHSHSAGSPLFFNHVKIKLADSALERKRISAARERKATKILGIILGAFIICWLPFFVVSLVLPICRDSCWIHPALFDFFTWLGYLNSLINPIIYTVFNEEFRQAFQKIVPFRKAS
5-hydroxytryptamine receptor 6 (Homo sapiens), sequence (P50406 whole entry): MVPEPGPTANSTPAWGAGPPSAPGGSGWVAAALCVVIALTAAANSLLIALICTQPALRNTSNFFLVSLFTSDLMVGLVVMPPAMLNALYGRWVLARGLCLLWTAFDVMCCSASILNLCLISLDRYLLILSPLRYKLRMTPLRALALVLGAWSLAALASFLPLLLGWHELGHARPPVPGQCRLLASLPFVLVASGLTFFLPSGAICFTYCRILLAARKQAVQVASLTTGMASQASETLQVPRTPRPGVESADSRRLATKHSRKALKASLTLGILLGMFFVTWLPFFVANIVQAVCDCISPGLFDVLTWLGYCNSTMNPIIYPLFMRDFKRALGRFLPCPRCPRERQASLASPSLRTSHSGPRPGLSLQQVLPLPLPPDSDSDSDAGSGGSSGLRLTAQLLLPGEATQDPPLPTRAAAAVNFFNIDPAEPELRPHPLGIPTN
Adenosine receptor A2a, sequence (P29274 whole entry): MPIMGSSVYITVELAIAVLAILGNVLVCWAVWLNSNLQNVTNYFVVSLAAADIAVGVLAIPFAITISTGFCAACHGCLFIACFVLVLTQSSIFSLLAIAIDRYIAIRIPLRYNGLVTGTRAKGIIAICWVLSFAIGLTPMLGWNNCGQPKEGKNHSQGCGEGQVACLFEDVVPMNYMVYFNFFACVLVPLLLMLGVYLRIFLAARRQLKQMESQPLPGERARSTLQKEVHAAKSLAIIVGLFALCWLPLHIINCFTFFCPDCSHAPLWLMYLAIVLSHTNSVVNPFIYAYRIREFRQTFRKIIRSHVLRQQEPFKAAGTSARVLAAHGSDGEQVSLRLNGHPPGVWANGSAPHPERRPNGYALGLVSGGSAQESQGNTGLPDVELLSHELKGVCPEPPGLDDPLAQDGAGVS

CC[C@@H](Nc1nc(Cl)nc2c1ncn2[C@H]1[C@H](O)[C@H](O)[C@]2(CO)C[C@H]12)C1CC1
inhibition [1]: < 50%
Ki (Adenosine receptor A1): 76 nM
Ki [2]: > 10000 nM
inhibition [3]: < 50%
inhibition [4]: > 50%
inhibition [5]: < 10%
inhibition [6]: < 50%
inhibition [7]: < 50%
Ki (Adenosine receptor A2a): 1880 nM
inhibition [8]: < 50%
inhibition [9]: < 50%
Ki [10]: 371 nM
inhibition [11]: < 50%
inhibition [12]: < 50%
inhibition [13]: < 50%

CNc1nc(Cl)nc2c1ncn2[C@H]1[C@H](O)[C@H](O)[C@]2(CO)C[C@H]12
inhibition [1]: < 50%
Ki [2]: > 10000 nM
inhibition [3]: < 50%
inhibition [4]: > 50%
inhibition [5]: < 10%
inhibition [6]: < 50%
inhibition [7]: < 50%
inhibition [8]: < 50%
inhibition [9]: < 50%
Ki [14]: 2220 nM
inhibition [11]: < 50%
inhibition [12]: < 50%
inhibition [13]: < 50%

CCC(CC)Nc1nc(Cl)nc2c1ncn2[C@H]1[C@H](O)[C@H](O)[C@]2(CO)C[C@H]12
inhibition [1]: < 50%
Ki (Adenosine receptor A1): 112 nM
Ki [2]: > 10000 nM
inhibition [3]: < 50%
inhibition [4]: > 50%
inhibition [5]: 12%
inhibition [6]: < 50%
inhibition [7]: < 50%
Ki (Adenosine receptor A2a): 1750 nM
inhibition [8]: < 50%
inhibition [9]: < 50%
Ki (Adenosine receptor A3): 1200 nM
Ki [10]: 703 nM
inhibition [11]: < 50%
inhibition [12]: < 50%
inhibition [13]: < 50%

CCNC(=O)[C@H]1O[C@@H](n2cnc3c(N)ncnc32)[C@H](O)[C@@H]1O [NECA]
inhibition [1]: < 50%
Imax [15]: 100%
Ki [2]: > 10000 nM
inhibition [3]: < 50%
inhibition [6]: < 50%
inhibition [7]: < 50%
inhibition [8]: < 50%
inhibition [9]: < 50%
inhibition [11]: < 50%
inhibition [12]: < 50%
inhibition [13]: < 50%

OC[C@@]12C[C@@H]1[C@@H](n1cnc3c(N[C@H](C4CCC4)C4CC4)nc(Cl)nc31)[C@H](O)[C@@H]2O
inhibition [1]: < 50%
Ki (Adenosine receptor A1): 298 nM
Ki [2]: > 10000 nM
inhibition [3]: < 50%
inhibition [4]: > 50%
inhibition [5]: < 10%
inhibition [6]: < 50%
inhibition [7]: < 50%
Ki (Adenosine receptor A2a): 2690 nM
inhibition [8]: < 50%
inhibition [9]: < 50%
Ki [10]: 298 nM
inhibition [11]: < 50%
inhibition [12]: < 50%
inhibition [13]: < 50%

CC[C@H](Nc1nc(Cl)nc2c1ncn2[C@H]1[C@H](O)[C@H](O)[C@]2(CO)C[C@H]12)C1CC1
inhibition [1]: < 50%
Ki (Adenosine receptor A1): 117 nM
Ki [2]: > 10000 nM
inhibition [3]: < 50%
inhibition [4]: > 50%
inhibition [5]: < 10%
inhibition [6]: < 50%
inhibition [7]: < 50%
Ki (Adenosine receptor A2a): 2950 nM
inhibition [8]: < 50%
inhibition [9]: < 50%
Ki [10]: 251 nM
inhibition [11]: < 50%
inhibition [12]: < 50%
inhibition [13]: < 50%

OC[C@@]12C[C@@H]1[C@@H](n1cnc3c(N[C@@H](C4CCC4)C4CC4)nc(Cl)nc31)[C@H](O)[C@@H]2O
inhibition [1]: < 50%
Ki (Adenosine receptor A1): 144 nM
Ki [2]: > 10000 nM
inhibition [3]: < 50%
inhibition [4]: > 50%
inhibition [5]: < 10%
inhibition [6]: < 50%
inhibition [7]: < 50%
Ki (Adenosine receptor A2a): 3940 nM
inhibition [8]: < 50%
inhibition [9]: < 50%
Ki [10]: 270 nM
inhibition [11]: < 50%
inhibition [12]: < 50%
inhibition [13]: < 50%

Nc1ncnc2c1ncn2[C@@H]1O[C@H](C(=O)NC2CC2)[C@@H](O)[C@H]1O
inhibition [1]: < 50%
Ki [2]: > 10000 nM
inhibition [3]: < 50%
inhibition [4]: < 10%
inhibition [5]: < 10%
inhibition [6]: < 50%
inhibition [7]: < 50%
inhibition [8]: < 50%
inhibition [9]: < 50%
Ki [14]: 1400 nM
inhibition [11]: < 50%
inhibition [16]: < 10%
inhibition [12]: < 50%
inhibition [13]: < 50%
